Our source for the T/C values is PubChem BioAssay AID200 (DTP/NCI, 2004).

“And” between values parts separate entries of the source, which are not always exact repeats. Identical values can stand only once. Inconclusive results and toxic doses are left out.

For the experiment, the system named is B6C3F1 mice, B16 melanoma ip, median survival T/C. In words: NCI In Vivo Anticancer Drug Screen. Data for tumor model B16 Melanoma (intraperitoneal) in B6C3F1 mice. The following applies: endpoint: median survival time, schedule: Q01DX009 (ip), higher = longer survival. Summed up: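 Tumor-bearing mice received test compound; a separate group got vehicle only. Survival was then compared, with results reported as treated over control.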

The mark [1] stands for this setting: dose: 1.25 mg/kg/injection, vehicle: saline with Tween-80.
Setting [2] is: dose: 3.12 mg/kg/injection, vehicle: saline.
Where [3] appears, read: dose: 6.25 mg/kg/injection, vehicle: saline with Tween-80.
The mark [4] stands for this setting: dose: 12.5 mg/kg/injection, vehicle: saline with Tween-80.
Setting [5] is: dose: 12.5 mg/kg/injection, vehicle: saline.
Where [6] appears, read: dose: 25.0 mg/kg/injection, vehicle: saline with Tween-80.
The mark [7] stands for this setting: dose: 25.0 mg/kg/injection, vehicle: saline.
Setting [8] is: dose: 50.0 mg/kg/injection, vehicle: saline with Tween-80.
The mark [9] stands for this setting: dose: 50.0 mg/kg/injection, vehicle: saline.
Setting [10] is: dose: 100.0 mg/kg/injection, vehicle: saline.
Setting [11] is: dose: 12.5 mg/kg/injection, vehicle: Klucel (hydroxypropylcellulose) (HPC).
Setting [12] is: dose: 25.0 mg/kg/injection, vehicle: Klucel (hydroxypropylcellulose) (HPC).
The mark [13] stands for this setting: dose: 50.0 mg/kg/injection, vehicle: Klucel (hydroxypropylcellulose) (HPC).
Setting [14] is: dose: 100.0 mg/kg/injection, vehicle: Klucel (hydroxypropylcellulose) (HPC).
Where [15] appears, read: dose: 100.0 mg/kg/injection, vehicle: saline with Tween-80.

In the case of `Cc1cc([NH-])c([NH-])cc1C.[Cl][Pt+2][Cl]`, the T/C was 112 % of control under setting [1] and 161 % of control (dose: 10.0 mg/kg/injection, vehicle: saline with Tween-80).

As to `O=c1n(CC2CO2)c(=O)n(CC2CO2)c(=O)n1CC1CO1` (stereo not drawn), the T/C was 121 % of control under setting [2]; 155 % of control (dose: 5.0 mg/kg/injection, vehicle: saline); 171 % of control under setting [3]; 178 % of control and 152 % of control (dose: 6.25 mg/kg/injection, vehicle: suspension in saline); 186 % of control (dose: 10.0 mg/kg/injection, vehicle: saline); 212 % of control and 153 % of control under setting [4]. Further, the T/C was 188 % of control under setting [5]; 211 % of control and 172 % of control (dose: 12.5 mg/kg/injection, vehicle: suspension in saline); 228 % of control (dose: 20.0 mg/kg/injection, vehicle: saline); 263 % of control and 197 % of control under setting [6]; 205 % of control and 227 % of control and 170 % of control under setting [7]; 282 % of control and 235 % of control (dose: 25.0 mg/kg/injection, vehicle: suspension in saline). For the same molecule, the T/C by setting is: (dose: 40.0 mg/kg/injection, vehicle: saline) 261 % of control; under setting [8], 233 % of control; under setting [9], 234 % of control and 172 % of control; (dose: 50.0 mg/kg/injection, vehicle: suspension in saline) 255 % of control; under setting [10], 191 % of control.

`Cc1nc(N)nc(N)c1-c1ccc(Cl)c(Cl)c1`: the T/C was 102 % of control (dose: 0.31 mg/kg/injection, vehicle: saline with Tween-80); 116 % of control (dose: 0.62 mg/kg/injection, vehicle: saline); 104 % of control (dose: 0.63 mg/kg/injection, vehicle: saline with Tween-80); 102 % of control under setting [1]; 101 % of control and 102 % of control (dose: 1.25 mg/kg/injection, vehicle: saline); 113 % of control (dose: 2.5 mg/kg/injection, vehicle: saline with Tween-80). The T/C (dose: 2.5 mg/kg/injection, vehicle: saline) was 116 % of control.

For the molecule `Oc1c(Cl)cc(Cl)cc1C1N2CCCCC2C2c3cccn3-c3ccccc3N21` (stereo not drawn), the T/C was 101 % of control under setting [11]; 98 % of control under setting [12]; 104 % of control under setting [13]; 98 % of control under setting [14]; 87 % of control (dose: 200.0 mg/kg/injection, vehicle: Klucel (hydroxypropylcellulose) (HPC)).

In the case of `O=[n+]1c2ccccc2n([O-])c2ccccc21.[Cl][Ni][Cl]`, the T/C runs as follows: (dose: 1.56 mg/kg/injection, vehicle: saline with Tween-80) 103 % of control; (dose: 3.12 mg/kg/injection, vehicle: saline with Tween-80) 95 % of control; under setting [3], 97 % of control; under setting [4], 113 % of control; under setting [6], 91 % of control.

On to `O=c1[nH]cnc2c1nnn2C1OC(CO)C(O)C1O` (stereo not drawn), for which the T/C reads like this: under setting [7], 96 % of control and 101 % of control; under setting [9], 116 % of control and 92 % of control; under setting [10], 104 % of control; (dose: 200.0 mg/kg/injection, vehicle: saline) 100 % of control.

As for `COc1cc2cc(c1Cl)N1CC(O)C(C)(O)C(=O)NC(C)C(=O)OC(CC1=O)C1(C)OC1C(C)C1CC(O)(NC(=O)O1)C(OC)/C=C\C=C(\C)C2OC` (stereo not drawn), the T/C is 164 % of control and 165 % of control (dose: 2.0 micrograms/kg/injection, vehicle: distilled water + alcohol); 170 % of control and 185 % of control (dose: 4.0 micrograms/kg/injection, vehicle: distilled water + alcohol); 176 % of control and 195 % of control and 196 % of control (dose: 8.0 micrograms/kg/injection, vehicle: distilled water + alcohol); 183 % of control and 197 % of control and 212 % of control (dose: 16.0 micrograms/kg/injection, vehicle: distilled water + alcohol).

On to `O=[n+]1c2ccccc2n([O-])c2cc(Cl)ccc21`, for which the T/C by setting is: under setting [4], 111 % of control; under setting [6], 109 % of control; under setting [8], 116 % of control; under setting [15], 124 % of control.

For the molecule `Nc1nc([Se]c2nc(N)nc3c2ncn3C2OC(CO)C(O)C2O)c2ncn(C3OC(CO)C(O)C3O)c2n1` (stereo not drawn), the T/C by setting is: (dose: 25.0 mg/kg/injection, vehicle: distilled water + Tween-80) 108 % of control; (dose: 50.0 mg/kg/injection, vehicle: distilled water + Tween-80) 112 % of control; (dose: 100.0 mg/kg/injection, vehicle: distilled water + Tween-80) 89 % of control; (dose: 200.0 mg/kg/injection, vehicle: distilled water + Tween-80) 87 % of control.

As for `CSC(SC)=C1C(=O)NC(=O)NC1=O`, the T/C reads like this: under setting [2], 111 % of control; (dose: 6.25 mg/kg/injection, vehicle: saline) 101 % of control; under setting [5], 90 % of control; under setting [7], 96 % of control.

Turning to `O=C1CN(CCN2CC(=O)N(CN3CCOCC3)C(=O)C2)CC(=O)N1CN1CCOCC1`, the T/C by setting is: (dose: 12.5 mg/kg/injection, vehicle: water) 107 % of control; (dose: 25.0 mg/kg/injection, vehicle: water) 114 % of control and 118 % of control (2×); (dose: 50.0 mg/kg/injection, vehicle: water) 150 % of control and 154 % of control.

Regarding `N#CC(C#N)=NNc1ccc2cn[nH]c2c1`, the T/C is 108 % of control under setting [11], 100 % of control under setting [12], 106 % of control under setting [13] and 102 % of control under setting [14].

As for `Nc1nc2c(C(=O)N3CCCC3)nnn2c2ccccc12`, the T/C was 118 % of control under setting [3]; 104 % of control under setting [4]; 122 % of control under setting [6]; 107 % of control under setting [8]; 102 % of control under setting [15].

In the case of `NC(=O)C1=CC2C3C=CC2(O)C(=O)OC3O1` (stereo not drawn), the T/C (dose: 3.75 mg/kg/injection, vehicle: Klucel (hydroxypropylcellulose) (HPC)) is 108 % of control and 123 % of control; the T/C (dose: 7.5 mg/kg/injection, vehicle: Klucel (hydroxypropylcellulose) (HPC)) was 118 % of control and 107 % of control; the T/C (dose: 15.0 mg/kg/injection, vehicle: Klucel (hydroxypropylcellulose) (HPC)) was 114 % of control and 123 % of control.

In the case of `CCCC(NC(=O)OCc1ccccc1)C(=O)O` (stereo not drawn), the T/C was 92 % of control under setting [15] and 90 % of control (dose: 200.0 mg/kg/injection, vehicle: saline with Tween-80).

For `C[n+]1c(/C=C\C=C\N2CCCCC2)sc2ccccc21`, the T/C is, setting by setting: (dose: 0.12 mg/kg/injection, vehicle: Klucel (hydroxypropylcellulose) (HPC)) 107 % of control; (dose: 0.25 mg/kg/injection, vehicle: Klucel (hydroxypropylcellulose) (HPC)) 95 % of control; (dose: 0.5 mg/kg/injection, vehicle: Klucel (hydroxypropylcellulose) (HPC)) 90 % of control; (dose: 1.0 mg/kg/injection, vehicle: Klucel (hydroxypropylcellulose) (HPC)) 95 % of control; (dose: 2.0 mg/kg/injection, vehicle: Klucel (hydroxypropylcellulose) (HPC)) 110 % of control.
